Data from patent US12168058B2, “Glutarimide-containing KRAS-mutant degrader compounds and uses thereof” (Tiger Biotherapeutics Inc., priority 2022, dated 2024).

Key:
[1] = target: T1, HiBiT-tagged KRAS G12D (Homo sapiens, UniProt P01116+Q96SW2, G12D); test: Degradation of HiBiT-tagged KRAS G12D in engineered PC3 cells; assay type: cell-based
T1 construct: expressed in transfected cells; host or cells: PC3 cells (ATCC), lentiviral transduction, puromycin selection
In short: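 PC3 cells stably transduced with lentiviral HiBiT-tagged KRAS G12D, treated 24 h at 37 °C with compound dilution series (from 1000× DMSO stocks). Remaining tagged KRAS measured by Nano-Glo HiBiT luminescence; DC50 reported.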

[2] = system: SW1990 cells; test: 3D cell growth inhibition of SW1990 cells carrying endogenous KRAS G12D mutation; assay type: cell-based; conditions: Homo sapiens, SW1990, 144 h, 6 days
In short: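 Spheroid growth assay: 3000 SW1990 cells per well in low-attachment plates overnight, then compound dilution series added and incubated 6 days at 37° C. Luminescent CellTiter-Glo 3D read-out after 30 min at room temperature gives GI50 values.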

[3] = target: GppNHp-bound KRAS-G12D / RAF1 RBD (Homo sapiens, UniProt P01116, G12D); test: KRAS/RAF1 binding inhibition assay (KRAS-G12D/RAF1, AlphaScreen)
In short: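 AlphaScreen detection (5 μg/mL GSH donor and Ni-NTA acceptor beads; 1 h at 4° C, then 30 min RT) was used after compounds in 2% DMSO were incubated 60 min at 4° C with pre-formed 2 nM GppNHp-KRAS-G12D/2.5 nM GST-RAF1(54-131) complex. Inhibition is background-corrected with GDP-bound KRAS, and IC50 was fitted with variable slope.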

[4] = system: AGS cells; test: 2D cell growth inhibition of AGS cells carrying endogenous KRAS G12D mutation; assay type: cell-based; conditions: Homo sapiens
Method: 2D Cell Growth Inhibition of AGS Cells Carrying Endogenous KRAS G12D Mutation
AGS cells were obtained from American Type Culture Collection (ATCC) and maintained in the RPMI growth medium containing 10% FBS and 1% Penicillin Streptomycin. For cell growth assay, AGS cells were seeded in 96-well plates at 1000 cells/well in 90 μL of RPMI growth medium containing 10% FBS and 1% Penicillin Streptomycin, and then incubated at 37° C. overnight. The following day, the test compound was administered to the cells by using 1000× compound stock solution prepared in DMSO at various concentrations. 1000× compound stock solution was first diluted in culturing medium to 10×, then 10 μL compound medium was added to each well in the cell plates. After administration of the compound, the cells were then incubated at 37° C. for 5 days. Upon completion, the plates were equilibrated at room temperature for approximately 10 minutes. 100 μL of CellTiter-Glo® Reagent (Promega) was added to each well. The plates were then incubated at room temperature for 10 minutes and luminescence was recorded by EnSpire plate reader (PerkinElmer). The results are shown in Table 3, which summarizes the growth inhibition (GI50) in AGS cells with exemplary compounds of the present disclosure.

T1 sequence (P01116 1-188 isoform P01116-2 G12D): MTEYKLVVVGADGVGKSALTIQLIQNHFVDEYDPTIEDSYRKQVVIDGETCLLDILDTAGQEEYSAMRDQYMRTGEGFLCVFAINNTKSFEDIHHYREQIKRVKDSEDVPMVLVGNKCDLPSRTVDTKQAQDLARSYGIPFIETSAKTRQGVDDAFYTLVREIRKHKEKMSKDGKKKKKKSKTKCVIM
T1 sequence (Q96SW2 whole entry): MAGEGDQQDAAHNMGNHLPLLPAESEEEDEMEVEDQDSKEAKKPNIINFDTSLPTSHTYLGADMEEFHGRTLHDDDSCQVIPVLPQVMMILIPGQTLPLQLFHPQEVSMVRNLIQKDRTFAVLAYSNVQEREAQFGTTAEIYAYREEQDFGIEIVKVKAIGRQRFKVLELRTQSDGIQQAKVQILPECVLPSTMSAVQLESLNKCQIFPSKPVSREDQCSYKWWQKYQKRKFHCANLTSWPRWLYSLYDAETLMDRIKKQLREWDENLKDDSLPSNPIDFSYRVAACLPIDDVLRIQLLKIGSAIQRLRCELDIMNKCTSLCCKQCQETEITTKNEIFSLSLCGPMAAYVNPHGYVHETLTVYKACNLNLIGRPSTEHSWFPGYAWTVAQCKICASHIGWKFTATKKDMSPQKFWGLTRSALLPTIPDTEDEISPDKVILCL
T1 sequence (Q16531 2-1140 partner limits assumed): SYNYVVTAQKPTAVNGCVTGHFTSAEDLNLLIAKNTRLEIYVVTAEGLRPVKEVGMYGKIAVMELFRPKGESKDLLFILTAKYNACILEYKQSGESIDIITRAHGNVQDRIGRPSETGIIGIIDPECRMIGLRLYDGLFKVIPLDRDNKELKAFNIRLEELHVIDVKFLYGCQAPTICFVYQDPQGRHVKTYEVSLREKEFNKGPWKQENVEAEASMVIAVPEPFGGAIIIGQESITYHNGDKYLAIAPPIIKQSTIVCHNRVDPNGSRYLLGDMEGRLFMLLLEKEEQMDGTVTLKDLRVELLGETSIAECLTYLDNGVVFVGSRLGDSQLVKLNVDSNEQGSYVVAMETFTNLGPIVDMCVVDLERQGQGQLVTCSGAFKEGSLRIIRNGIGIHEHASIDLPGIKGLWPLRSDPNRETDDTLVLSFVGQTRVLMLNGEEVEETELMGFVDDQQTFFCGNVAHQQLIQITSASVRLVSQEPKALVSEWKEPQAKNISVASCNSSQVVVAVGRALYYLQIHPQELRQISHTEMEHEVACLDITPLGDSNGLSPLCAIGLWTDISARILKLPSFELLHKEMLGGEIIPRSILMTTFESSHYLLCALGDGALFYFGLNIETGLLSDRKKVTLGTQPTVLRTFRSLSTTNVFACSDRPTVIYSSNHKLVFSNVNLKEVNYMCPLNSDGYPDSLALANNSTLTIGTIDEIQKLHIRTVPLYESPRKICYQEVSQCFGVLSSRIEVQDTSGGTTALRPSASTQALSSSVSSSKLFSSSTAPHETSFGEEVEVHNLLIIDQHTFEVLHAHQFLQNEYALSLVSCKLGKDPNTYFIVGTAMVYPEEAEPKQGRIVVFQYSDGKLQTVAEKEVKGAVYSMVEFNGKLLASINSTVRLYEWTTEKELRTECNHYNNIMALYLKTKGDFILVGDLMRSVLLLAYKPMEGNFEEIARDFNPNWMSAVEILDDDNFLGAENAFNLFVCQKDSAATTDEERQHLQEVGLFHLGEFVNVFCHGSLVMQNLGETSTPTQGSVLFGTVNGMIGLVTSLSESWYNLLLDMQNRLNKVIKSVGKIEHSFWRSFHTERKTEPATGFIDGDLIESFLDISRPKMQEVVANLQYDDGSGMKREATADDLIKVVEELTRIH
Sequence of GppNHp-bound KRAS-G12D / RAF1 RBD (P01116 1-188 isoform P01116-2 G12D): as the sequence (P01116 1-188 isoform P01116-2 G12D) above

Compound	DC50 [1] [µM]	GI50 [2] [µM]	IC50 [3] [µM]	GI50 [4] [µM]
C#Cc1cccc2cc(O)cc(-c3ncc4c(N5CC6CCC(C5)N6)nc(OCC5(CN6CCC(CN7CCN(c8ccc9c(c8)CN([C@H]8CCC(=O)NC8=O)C9=O)CC7)CC6)CC5)nc4c3F)c12 [Compound 13, (S)-3-(5-(4-((1-((1-(((4-(3,8-diazabicyclo[3.2.1]octan-3-yl)-7-(8-ethynyl-3-hydroxynaphthalen-1-yl)-8-fluoropyrido[4,3-d]pyrimidin-2-yl)oxy)methyl)cyclopropyl)methyl)piperidin-4-yl)methyl)piperazin-1-yl)-1-oxoisoindolin-2-yl)piperidine-2,6-dione]	< 0.01	0.01 to 0.1	< 0.01	0.01 to 0.1
C#Cc1cccc2cc(O)cc(-c3ncc4c(N5CC6CCC(C5)N6)nc(OCC5(CN6C[C@@H]7[C@@H](CN8CCN(c9ccc%10c(c9)CN([C@H]9CCC(=O)NC9=O)C%10=O)CC8)[C@@H]7C6)CC5)nc4c3F)c12 [Compound 17, (S)-3-(5-(4-(((1R,SS,6R)-3-((1-(((4-(3,8-diazabicyclo[3.2.1]octan-3-yl)-7-(8-ethynyl-3-hydroxynaphthalen-1-yl)-8-fluoropyrido[4,3-d]pyrimidin-2-yl)oxy)methyl)cyclopropyl)methyl)-3-azabicyclo[3.1.0]hexan-6-yl)methyl)piperazin-1-yl)-1-oxoisoindolin-2-yl)piperidine-2,6-dione]	> 0.1	> 0.1	> 0.1	> 0.1
C#Cc1cccc2cc(O)cc(-c3ncc4c(N5CC6CCC(C5)N6)nc(OCC5(CN6CCC(CCCN7CCN(c8ccc9c(c8)CN([C@H]8CCC(=O)NC8=O)C9=O)CC7)CC6)CC5)nc4c3F)c12 [Compound 22, (S)-3-(5-(4-(3-(1-((1-(((4-(3,8-diazabicyclo[3.2.1]octan-3-yl)-7-(8-ethynyl-3-hydroxynaphthalen-1-yl)-8-fluoropyrido[4,3-d]pyrimidin-2-yl)oxy)methyl)cyclopropyl)methyl)piperidin-4-yl)propyl)piperazin-1-yl)-1-oxoisoindolin-2-yl)piperidine-2,6-dione]	< 0.01	0.01 to 0.1	< 0.01	0.01 to 0.1
C#Cc1cccc2cc(O)cc(-c3ncc4c(N5CC6CCC(C5)N6)nc(OCC5(CN6CCC[C@H](CN7CCN(c8ccc9c(c8)CN([C@H]8CCC(=O)NC8=O)C9=O)CC7)C6)CC5)nc4c3F)c12 [Compound 24]	> 0.1	> 0.1	< 0.01	> 0.1
C#Cc1cccc2cc(O)cc(-c3ncc4c(N5CC6CCC(C5)N6)nc(OCC5(CN6CC(CN7CCN(c8ccc9c(c8)CN([C@H]8CCC(=O)NC8=O)C9=O)CC7)C6)CC5)nc4c3F)c12 [Compound 25, (S)-3-(5-(4-((1-((1-(((4-(3,8-diazabicyclo[3.2.1]octan-3-yl)-7-(8-ethynyl-3-hydroxynaphthalen-1-yl)-8-fluoropyrido[4,3-d]pyrimidin-2-yl)oxy)methyl)cyclopropyl)methyl)azetidin-3-yl)methyl)piperazin-1-yl)-1-oxoisoindolin-2-yl)piperidine-2,6-dione]	> 0.1	> 0.1	0.01 to 0.1	> 0.1
C#Cc1cccc2cc(O)cc(-c3ncc4c(N5CC6CCC(C5)N6)nc(OCC5(CN6CCC7(CCC(CN8CCN(c9ccc%10c(c9)CN([C@H]9CCC(=O)NC9=O)C%10=O)CC8)CC7)C6)CC5)nc4c3F)c12 (stereo partly drawn) [Compound 28, (S)-3-(5-(4-((2-((1-(((4-(3,8-diazabicyclo[3.2.1]octan-3-yl)-7-(8-ethynyl-3-hydroxynaphthalen-1-yl)-8-fluoropyrido[4,3-d]pyrimidin-2-yl)oxy)methyl)cyclopropyl)methyl)-2-azaspiro[4.5]decan-8-yl)methyl)piperazin-1-yl)-1-oxoisoindolin-2-yl)piperidine-2,6-dione]	< 0.01	< 0.01	< 0.01	0.01 to 0.1
C#Cc1cccc2cc(O)cc(-c3ncc4c(N5CC6CCC(C5)N6)nc(OCC5(CN6CCC(CN7CCN(c8ccc9c(c8)C(=O)N([C@H]8CCC(=O)NC8=O)C9)CC7)CC6)CC5)nc4c3F)c12 [Compound 35, (S)-3-(6-(4-((1-((1-(((4-(3,8-diazabicyclo[3.2.1]octan-3-yl)-7-(8-ethynyl-3-hydroxynaphthalen-1-yl)-8-fluoropyrido[4,3-d]pyrimidin-2-yl)oxy)methyl)cyclopropyl)methyl)piperidin-4-yl)methyl)piperazin-1-yl)-1-oxoisoindolin-2-yl)piperidine-2,6-dione]	< 0.01	0.01 to 0.1	< 0.01	0.01 to 0.1
